Test results published in paper doi:10.1101/2021.08.17.455204v3 (biorxiv, 2022).

Key:
[1] = molecular target: Aldosterone (Rattus norvegicus, UniProt P22199); assay: biochemical; settings: read-out: % inhibition
[2] = molecular target: CYP450, 19 (Homo sapiens, UniProt P11511); assay: biochemical; settings: read-out: % inhibition
[3] = molecular target: Peptidase, Angiotensin Converting Enzyme (Oryctolagus cuniculus, UniProt P12822); assay: biochemical; settings: read-out: % inhibition
[4] = molecular target: Progesterone PR-B (Homo sapiens, UniProt P06401); assay: biochemical; settings: read-out: % inhibition
[5] = molecular target: Insulin (Rattus norvegicus, UniProt P15127); assay: biochemical; settings: read-out: % inhibition
[6] = molecular target: Angiotensin AT2 (Homo sapiens, UniProt P50052); assay: biochemical; settings: read-out: % inhibition
[7] = molecular target: Dopamine D2s (Homo sapiens, UniProt P14416); assay: biochemical; settings: read-out: % inhibition
[8] = molecular target: Nicotinic Acetylcholine α3β4 (Homo sapiens, UniProt P30926+P32297); assay: biochemical; settings: read-out: % inhibition
[9] = molecular target: Adrenergic β1 (Homo sapiens, UniProt P08588); assay: biochemical; settings: read-out: % inhibition
[10] = molecular target: Potassium Channel hERG (Homo sapiens, UniProt Q12809); assay: in vitro; settings: crude membrane preparations
[11] = molecular target: Muscarinic M5 (Homo sapiens, UniProt P08912); assay: biochemical; settings: read-out: % inhibition
[12] = molecular target: Estrogen ERα (Homo sapiens, UniProt P03372); assay: biochemical; settings: read-out: % inhibition
[13] = molecular target: Dopamine D3 (Homo sapiens, UniProt P35462); assay: biochemical; settings: read-out: % inhibition
[14] = molecular target: Adenosine A1 (Homo sapiens, UniProt P30542); assay: biochemical; settings: read-out: % inhibition
[15] = molecular target: Opiate μ (OP3, MOP) (Homo sapiens, UniProt P35372); assay: biochemical; settings: read-out: % inhibition
[16] = molecular target: Dopamine D1 (Homo sapiens, UniProt P21728); assay: biochemical; settings: read-out: % inhibition
[17] = molecular target: Histamine H1 (Homo sapiens, UniProt P35367); assay: biochemical; settings: read-out: % inhibition
[18] = molecular target: Sigma σ2 (Rattus norvegicus, UniProt Q5U3Y7); assay: biochemical; settings: read-out: % inhibition
[19] = molecular target: Adrenergic α1B (Rattus norvegicus, UniProt P15823); assay: biochemical; settings: read-out: % inhibition
[20] = molecular target: Adrenergic α1A (Rattus norvegicus, UniProt P43140); assay: biochemical; settings: read-out: % inhibition
[21] = molecular target: Adrenergic β2 (Homo sapiens, UniProt P07550); assay: biochemical; settings: read-out: % inhibition
[22] = molecular target: Adrenergic α2A (Homo sapiens, UniProt P08913); assay: biochemical; settings: read-out: % inhibition
[23] = molecular target: Adenosine A2A (Homo sapiens, UniProt P29274); assay: biochemical; settings: read-out: % inhibition
[24] = molecular target: Sigma σ1 (Homo sapiens, UniProt Q99720); assay: biochemical; settings: read-out: % inhibition
[25] = molecular target: Muscarinic M3 (Homo sapiens, UniProt P20309); assay: biochemical; settings: read-out: % inhibition
[26] = molecular target: Muscarinic M2 (Homo sapiens, UniProt P08172); assay: biochemical; settings: read-out: % inhibition
[27] = molecular target: Angiotensin AT1 (Homo sapiens, UniProt P30556); assay: biochemical; settings: read-out: % inhibition
[28] = molecular target: Transporter, Norepinephrine (NET) (Homo sapiens, UniProt P23975); assay: biochemical; settings: read-out: % inhibition
[29] = molecular target: Estrogen ERβ (Homo sapiens, UniProt Q92731); assay: biochemical; settings: read-out: % inhibition
[30] = molecular target: Androgen (Testosterone) (Homo sapiens, UniProt P10275); assay: biochemical; settings: read-out: % inhibition
[31] = molecular target: SERCA2a (guinea-pig cardiac SR microsomes) (Cavia porcellus, UniProt A0A286XD73); assay: […]-ATP hydrolysis; assay type: biochemical; settings: 37 °C; normal guinea-pig heart SR microsomes; activation; PLN present
[32] = molecular target: HMG-CoA Reductase (Homo sapiens, UniProt P04035); assay: biochemical; settings: read-out: % inhibition
[33] = molecular target: Protein Tyrosine Kinase, Src (Homo sapiens, UniProt P12931); assay: biochemical; settings: read-out: % inhibition
[34] = molecular target: Monoamine Oxidase MAO-A (Homo sapiens, UniProt P21397); assay: biochemical; settings: read-out: % inhibition
[35] = molecular target: Protein Tyrosine Kinase, ABL1 (Homo sapiens, UniProt P00519); assay: biochemical; settings: read-out: % inhibition
[36] = molecular target: Peptidase, Renin (Homo sapiens, UniProt P00797); assay: biochemical; settings: read-out: % inhibition
[37] = molecular target: Monoamine Oxidase MAO-B (Homo sapiens, UniProt P27338); assay: biochemical; settings: read-out: % inhibition
[38] = molecular target: Glucocorticoid (Homo sapiens, UniProt P04150); assay: biochemical; settings: read-out: % inhibition
[39] = molecular target: Na+/K+ ATPase alpha1 isoform from dog kidney (Canis lupus, UniProt P50997); assay: […]-ATP hydrolysis, ouabain-sensitive ATPase inhibition; assay type: biochemical

Adrenergic β2, sequence (P07550 whole entry): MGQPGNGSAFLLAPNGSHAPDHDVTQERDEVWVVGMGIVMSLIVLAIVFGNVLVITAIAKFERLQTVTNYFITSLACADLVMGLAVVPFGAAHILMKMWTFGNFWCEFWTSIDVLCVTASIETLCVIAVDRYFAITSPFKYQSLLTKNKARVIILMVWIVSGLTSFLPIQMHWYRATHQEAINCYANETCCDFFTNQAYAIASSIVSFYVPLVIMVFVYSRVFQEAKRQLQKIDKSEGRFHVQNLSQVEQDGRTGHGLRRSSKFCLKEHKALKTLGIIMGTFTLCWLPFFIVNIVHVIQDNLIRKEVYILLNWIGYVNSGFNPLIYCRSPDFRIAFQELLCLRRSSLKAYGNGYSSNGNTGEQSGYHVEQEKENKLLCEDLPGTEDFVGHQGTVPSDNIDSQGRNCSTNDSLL
Monoamine Oxidase MAO-A, sequence (P21397 whole entry): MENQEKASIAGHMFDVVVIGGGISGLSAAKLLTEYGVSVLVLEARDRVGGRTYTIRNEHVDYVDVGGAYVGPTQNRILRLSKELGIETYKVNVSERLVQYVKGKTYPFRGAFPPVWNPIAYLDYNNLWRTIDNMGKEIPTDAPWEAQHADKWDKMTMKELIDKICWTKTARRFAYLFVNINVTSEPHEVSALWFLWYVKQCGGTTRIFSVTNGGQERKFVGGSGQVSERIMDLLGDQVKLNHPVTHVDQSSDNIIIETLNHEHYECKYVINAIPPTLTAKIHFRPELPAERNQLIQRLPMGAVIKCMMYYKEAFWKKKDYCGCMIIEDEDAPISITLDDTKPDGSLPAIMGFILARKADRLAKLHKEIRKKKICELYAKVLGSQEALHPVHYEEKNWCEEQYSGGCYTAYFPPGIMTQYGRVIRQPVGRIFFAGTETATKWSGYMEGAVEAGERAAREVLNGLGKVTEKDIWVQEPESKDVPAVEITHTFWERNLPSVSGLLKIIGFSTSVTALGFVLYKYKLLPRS
Muscarinic M2, sequence (P08172 whole entry): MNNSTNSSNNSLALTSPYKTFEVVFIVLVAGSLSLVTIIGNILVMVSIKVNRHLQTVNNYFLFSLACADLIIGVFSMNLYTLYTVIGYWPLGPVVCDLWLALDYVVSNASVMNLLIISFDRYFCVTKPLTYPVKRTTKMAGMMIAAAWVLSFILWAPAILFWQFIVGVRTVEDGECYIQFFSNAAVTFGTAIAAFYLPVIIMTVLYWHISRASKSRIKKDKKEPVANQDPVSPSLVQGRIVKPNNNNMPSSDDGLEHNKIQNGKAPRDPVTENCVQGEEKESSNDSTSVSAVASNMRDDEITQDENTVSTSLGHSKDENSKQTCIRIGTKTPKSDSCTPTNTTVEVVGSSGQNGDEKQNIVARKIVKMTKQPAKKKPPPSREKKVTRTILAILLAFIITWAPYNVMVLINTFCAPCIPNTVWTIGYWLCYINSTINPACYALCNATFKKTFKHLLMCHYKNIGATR
Peptidase, Angiotensin Converting Enzyme, sequence (P12822 whole entry): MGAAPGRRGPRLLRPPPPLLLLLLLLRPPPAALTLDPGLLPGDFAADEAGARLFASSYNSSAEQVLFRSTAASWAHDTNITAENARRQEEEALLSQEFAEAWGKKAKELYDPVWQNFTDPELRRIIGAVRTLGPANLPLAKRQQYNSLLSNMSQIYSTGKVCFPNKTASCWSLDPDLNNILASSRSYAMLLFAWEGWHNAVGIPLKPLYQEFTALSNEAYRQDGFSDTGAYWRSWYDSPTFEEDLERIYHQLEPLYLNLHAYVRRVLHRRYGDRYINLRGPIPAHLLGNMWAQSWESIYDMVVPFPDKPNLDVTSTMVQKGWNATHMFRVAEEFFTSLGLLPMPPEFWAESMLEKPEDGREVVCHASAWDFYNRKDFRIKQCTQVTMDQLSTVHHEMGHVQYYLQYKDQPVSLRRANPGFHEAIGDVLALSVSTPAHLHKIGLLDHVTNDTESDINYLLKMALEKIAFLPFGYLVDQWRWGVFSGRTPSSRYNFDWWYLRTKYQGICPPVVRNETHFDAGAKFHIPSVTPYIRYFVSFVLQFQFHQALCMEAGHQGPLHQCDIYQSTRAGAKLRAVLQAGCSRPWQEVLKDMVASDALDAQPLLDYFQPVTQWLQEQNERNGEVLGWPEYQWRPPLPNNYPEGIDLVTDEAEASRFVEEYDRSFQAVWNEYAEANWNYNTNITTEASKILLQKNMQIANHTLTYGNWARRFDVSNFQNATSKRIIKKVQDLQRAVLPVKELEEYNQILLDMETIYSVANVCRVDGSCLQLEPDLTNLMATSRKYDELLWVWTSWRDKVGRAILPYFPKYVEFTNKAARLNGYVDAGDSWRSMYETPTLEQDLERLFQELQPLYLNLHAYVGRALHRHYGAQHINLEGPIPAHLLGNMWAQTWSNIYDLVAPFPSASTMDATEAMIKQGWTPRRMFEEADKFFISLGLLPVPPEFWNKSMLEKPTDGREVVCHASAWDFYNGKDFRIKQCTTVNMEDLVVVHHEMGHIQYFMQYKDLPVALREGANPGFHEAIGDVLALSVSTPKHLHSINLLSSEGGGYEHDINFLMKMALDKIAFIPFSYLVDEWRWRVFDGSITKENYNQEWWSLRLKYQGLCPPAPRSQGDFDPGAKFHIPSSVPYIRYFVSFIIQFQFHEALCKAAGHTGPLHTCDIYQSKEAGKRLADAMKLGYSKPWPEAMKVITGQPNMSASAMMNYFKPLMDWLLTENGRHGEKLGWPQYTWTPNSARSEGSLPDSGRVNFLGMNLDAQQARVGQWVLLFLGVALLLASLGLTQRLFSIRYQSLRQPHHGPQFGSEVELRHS
Angiotensin AT1, sequence (P30556 whole entry): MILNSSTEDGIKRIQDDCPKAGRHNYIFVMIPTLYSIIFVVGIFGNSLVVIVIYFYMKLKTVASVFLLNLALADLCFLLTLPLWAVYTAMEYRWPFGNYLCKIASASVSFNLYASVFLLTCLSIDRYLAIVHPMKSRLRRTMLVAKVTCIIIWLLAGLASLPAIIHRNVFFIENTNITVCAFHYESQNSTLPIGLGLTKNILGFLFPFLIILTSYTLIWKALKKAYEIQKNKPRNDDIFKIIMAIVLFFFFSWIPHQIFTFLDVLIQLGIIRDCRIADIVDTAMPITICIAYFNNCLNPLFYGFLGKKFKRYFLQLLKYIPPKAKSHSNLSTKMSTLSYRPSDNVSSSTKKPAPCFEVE
Sigma σ1, sequence (Q99720 whole entry): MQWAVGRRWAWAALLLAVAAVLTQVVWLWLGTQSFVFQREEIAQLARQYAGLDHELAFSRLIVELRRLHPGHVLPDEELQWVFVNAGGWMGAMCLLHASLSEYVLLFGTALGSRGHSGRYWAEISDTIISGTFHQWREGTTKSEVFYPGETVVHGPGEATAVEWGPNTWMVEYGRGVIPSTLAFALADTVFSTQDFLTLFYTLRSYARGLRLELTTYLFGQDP
Protein Tyrosine Kinase, Src, sequence (P12931 whole entry): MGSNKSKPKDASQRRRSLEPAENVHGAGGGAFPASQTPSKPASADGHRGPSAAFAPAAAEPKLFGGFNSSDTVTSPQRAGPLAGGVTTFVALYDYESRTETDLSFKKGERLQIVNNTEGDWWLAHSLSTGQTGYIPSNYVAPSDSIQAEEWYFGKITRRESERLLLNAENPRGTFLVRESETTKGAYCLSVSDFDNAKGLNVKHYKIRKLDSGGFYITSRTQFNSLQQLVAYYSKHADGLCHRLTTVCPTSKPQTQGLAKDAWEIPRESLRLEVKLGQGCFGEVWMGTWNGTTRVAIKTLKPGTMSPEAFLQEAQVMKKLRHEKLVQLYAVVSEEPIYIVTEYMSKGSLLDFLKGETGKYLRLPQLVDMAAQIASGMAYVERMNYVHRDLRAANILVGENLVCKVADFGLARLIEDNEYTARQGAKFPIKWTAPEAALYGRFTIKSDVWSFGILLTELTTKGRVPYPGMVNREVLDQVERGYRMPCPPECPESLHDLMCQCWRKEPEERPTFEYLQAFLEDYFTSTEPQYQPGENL
Estrogen ERα, sequence (P03372 whole entry): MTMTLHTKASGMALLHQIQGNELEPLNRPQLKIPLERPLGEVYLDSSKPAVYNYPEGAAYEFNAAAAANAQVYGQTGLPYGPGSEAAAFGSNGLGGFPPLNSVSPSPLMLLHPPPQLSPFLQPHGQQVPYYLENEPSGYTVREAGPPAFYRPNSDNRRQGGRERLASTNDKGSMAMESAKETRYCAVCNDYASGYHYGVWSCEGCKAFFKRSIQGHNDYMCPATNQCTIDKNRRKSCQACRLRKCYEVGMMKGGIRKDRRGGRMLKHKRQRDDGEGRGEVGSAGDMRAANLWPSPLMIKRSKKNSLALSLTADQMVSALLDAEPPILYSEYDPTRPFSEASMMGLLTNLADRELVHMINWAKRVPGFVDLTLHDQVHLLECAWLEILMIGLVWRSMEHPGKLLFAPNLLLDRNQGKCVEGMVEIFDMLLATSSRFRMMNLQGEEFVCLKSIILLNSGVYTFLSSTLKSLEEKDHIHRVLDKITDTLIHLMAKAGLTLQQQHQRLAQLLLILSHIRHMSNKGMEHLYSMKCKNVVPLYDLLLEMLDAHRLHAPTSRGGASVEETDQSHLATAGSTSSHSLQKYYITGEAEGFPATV
Adrenergic β1, sequence (P08588 whole entry): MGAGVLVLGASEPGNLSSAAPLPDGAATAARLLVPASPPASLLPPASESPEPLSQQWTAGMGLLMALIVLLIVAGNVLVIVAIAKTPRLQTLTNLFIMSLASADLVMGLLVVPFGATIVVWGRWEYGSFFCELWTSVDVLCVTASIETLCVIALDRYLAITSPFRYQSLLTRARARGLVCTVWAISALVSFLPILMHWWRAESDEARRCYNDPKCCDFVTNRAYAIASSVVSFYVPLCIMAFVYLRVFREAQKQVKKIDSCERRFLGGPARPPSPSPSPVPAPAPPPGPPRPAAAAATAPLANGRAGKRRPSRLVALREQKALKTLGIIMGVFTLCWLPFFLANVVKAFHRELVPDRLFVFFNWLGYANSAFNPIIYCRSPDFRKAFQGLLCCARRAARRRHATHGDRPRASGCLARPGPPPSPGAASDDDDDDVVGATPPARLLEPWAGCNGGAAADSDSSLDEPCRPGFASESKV

C[C@]12CCC(=NOCC(=O)O)C[C@@H]1[C@H](O)C[C@@H]1[C@@H]2CC[C@]2(C)C(=O)CC[C@@H]12 (mixture of isomers) [PST3093, (E,Z)-[(6-beta-hydroxy-17-oxoandrostan-3-ylidene)amino]oxyacetic acid]
inhibition at 10 µM [1]: 5%
inhibition at 10 µM [2]: 12%
inhibition at 10 µM [3]: 3%
inhibition at 10 µM [4]: -15%
inhibition at 10 µM [5]: 6%
inhibition at 10 µM [6]: 7%
inhibition at 10 µM [7]: 26%
inhibition at 10 µM [8]: 1%
inhibition at 10 µM [9]: -4%
inhibition at 10 µM [10]: 10%
inhibition at 10 µM [11]: 5%
inhibition at 10 µM [12]: -6%
inhibition at 10 µM [13]: 1%
inhibition at 10 µM [14]: -2%
inhibition at 10 µM [15]: -5%
inhibition at 10 µM [16]: 3%
inhibition at 10 µM [17]: -3%
inhibition at 10 µM [18]: 12%
inhibition at 10 µM [19]: 0%
inhibition at 10 µM [20]: 2%
inhibition at 10 µM [21]: 7%
inhibition at 10 µM [22]: -5%
inhibition at 10 µM [23]: -6%
inhibition at 10 µM [24]: 7%
inhibition at 10 µM [25]: 4%
inhibition at 10 µM [26]: -7%
inhibition at 10 µM [27]: -1%
inhibition at 10 µM [28]: 4%
inhibition at 10 µM [29]: 7%
inhibition at 10 µM [30]: 3%
% reduction of KdCa at 100 nM [31]: ~ 20%
inhibition at 10 µM [32]: -2%
inhibition at 10 µM [33]: -1%
inhibition at 10 µM [34]: 2%
inhibition at 10 µM [35]: 3%
inhibition at 10 µM [36]: 6%
inhibition at 10 µM [37]: -3%
inhibition at 10 µM [38]: 8%
IC50 [39]: > 100 µM
